The nature of the data set: activity coefficient (dimensionless); of the first substance listed, at infinite dilution; xn = mol fraction of the nth substance listed. The conditions noted are these: Liquid, Chromatography, x1 = 0.

Molecules are shown by their SMILES. ± gives the expanded uncertainty stated by the source.

Regarding `CCCCCO` [pentan-1-ol] + CCCCn1cc[n+](C)c1.F[B-](F)(F)F, the activity coefficient runs as follows: (303.15 K) 6.96 ± 0.6; (313.15 K) 5.91 ± 0.51; (323.15 K) 5.15 ± 0.45; (333.15 K) 4.56 ± 0.39; (343.15 K) 4 ± 0.34.
Taken in the same sequence, the figures for `CO` [methanol] + CCCCn1cc[n+](C)c1.F[B-](F)(F)F were 0.813 ± 0.068, 0.716 ± 0.061, 0.646 ± 0.056, 0.596 ± 0.053 and 0.529 ± 0.048.
Taken in the same sequence, the figures for `C1COCCO1` [1,4-dioxane] + CCCCn1cc[n+](C)c1.F[B-](F)(F)F were 1.53 ± 0.13, 1.54 ± 0.13, 1.55 ± 0.13, 1.56 ± 0.13 and 1.57 ± 0.13.
Taken in the same sequence, the figures for `CCO` [ethanol] + CCCCn1cc[n+](C)c1.F[B-](F)(F)F were 1.59 ± 0.14, 1.39 ± 0.12, 1.27 ± 0.11, 1.17 ± 0.097 and 1.07 ± 0.088.
For `CC(C)CCO` [3-methylbutan-1-ol] + CCCCn1cc[n+](C)c1.F[B-](F)(F)F, the activity coefficient amounted to 6.63 ± 0.57 (303.15 K); 5.74 ± 0.49 (313.15 K); 5.08 ± 0.44 (323.15 K); 4.53 ± 0.39 (333.15 K); 4.08 ± 0.35 (343.15 K).
Taken in the same sequence, the figures for `CC(C)=O` [acetone] + CCCCn1cc[n+](C)c1.F[B-](F)(F)F were 1.16 ± 0.096, 1.19 ± 0.098, 1.21 ± 0.1, 1.23 ± 0.1 and 1.25 ± 0.1.
Taken in the same sequence, the figures for `ClC(Cl)Cl` [trichloromethane] + CCCCn1cc[n+](C)c1.F[B-](F)(F)F were 1.11 ± 0.092, 1.21 ± 0.1, 1.28 ± 0.11, 1.36 ± 0.11 and 1.43 ± 0.12.
Taken in the same sequence, the figures for `ClCCl` [dichloromethane] + CCCCn1cc[n+](C)c1.F[B-](F)(F)F were 1.1 ± 0.091, 1.15 ± 0.095, 1.2 ± 0.099, 1.24 ± 0.1 and 1.28 ± 0.11.
Consider `ClC(Cl)(Cl)Cl` [tetrachloromethane] + CCCCn1cc[n+](C)c1.F[B-](F)(F)F, for which the activity coefficient by setting is: (303.15 K) 5.73 ± 0.49; (313.15 K) 6.09 ± 0.53; (323.15 K) 6.27 ± 0.54; (333.15 K) 6.42 ± 0.55; (343.15 K) 6.52 ± 0.56.
Turning to `O=C1CCCCC1` [cyclohexanone] + CCCCn1cc[n+](C)c1.F[B-](F)(F)F, the activity coefficient by setting is: (323.15 K) 2.64 ± 0.23; (333.15 K) 2.62 ± 0.23; (343.15 K) 2.61 ± 0.23; (353.15 K) 2.58 ± 0.22; (363.15 K) 2.57 ± 0.22.
`CCCCO` [butan-1-ol] + CCCCn1cc[n+](C)c1.F[B-](F)(F)F: the activity coefficient reads like this: (303.15 K) 4.14 ± 0.36; (313.15 K) 3.67 ± 0.32; (323.15 K) 3.3 ± 0.28; (333.15 K) 2.98 ± 0.26; (343.15 K) 2.72 ± 0.23.
Taken in the same sequence, the figures for `CC(C)O` [propan-2-ol] + CCCCn1cc[n+](C)c1.F[B-](F)(F)F were 2.63 ± 0.23, 2.22 ± 0.19, 1.86 ± 0.16, 1.66 ± 0.14 and 1.53 ± 0.13.
As for `CC#N` [acetonitrile] + CCCCn1cc[n+](C)c1.F[B-](F)(F)F, the activity coefficient reads like this: (303.15 K) 0.734 ± 0.062; (313.15 K) 0.742 ± 0.063; (323.15 K) 0.752 ± 0.063; (333.15 K) 0.757 ± 0.064; (343.15 K) 0.768 ± 0.065.
As to `CCC(C)O` (stereo not given) [butan-2-ol] + CCCCn1cc[n+](C)c1.F[B-](F)(F)F, the activity coefficient is 3.85 ± 0.33 (303.15 K); 3.44 ± 0.3 (313.15 K); 3.12 ± 0.27 (323.15 K); 2.79 ± 0.24 (333.15 K); 2.56 ± 0.22 (343.15 K).
Taken in the same sequence, the figures for `CCOC(C)=O` [ethyl acetate] + CCCCn1cc[n+](C)c1.F[B-](F)(F)F were 3.3 ± 0.28, 3.34 ± 0.29, 3.36 ± 0.29, 3.39 ± 0.29 and 3.41 ± 0.29.
Consider `CC(C)CO` [2-methyl-1-propanol] + CCCCn1cc[n+](C)c1.F[B-](F)(F)F, for which the activity coefficient reads like this: (303.15 K) 2.63 ± 0.23; (313.15 K) 2.22 ± 0.19; (323.15 K) 1.86 ± 0.16; (333.15 K) 1.66 ± 0.14; (343.15 K) 1.53 ± 0.13.
Taken in the same sequence, the figures for `CCCO` [propan-1-ol] + CCCCn1cc[n+](C)c1.F[B-](F)(F)F were 2.8 ± 0.24, 2.48 ± 0.21, 2.23 ± 0.19, 1.96 ± 0.17 and 1.64 ± 0.14.

Values taken from the NIST ThermoML archive (doi:10.1021/je060305e).
